# Tested on: yeast genes (expressed mRNA)
# Experiment: DNA chip measurement of expressed mRNA of yeast genes after culture with a toxic chemical substance
# Assay type: cell-based, Saccharomyces cerevisiae S288C
# Procedure, shortened: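 Yeast S288C, YPD 25° C; toxicant at log phase, 2 h, sublethal growth-inhibiting conc.; no-chemical control. Hot SDS/acetate RNA extraction, oligo-dT mRNA, Cy3/Cy5-dUTP RT. Whole-genome chip, 65° C >12 h. Readout: treated/control intensity ratio, ≥2 significant.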
structure (smiles),measurement,setting,value
"COc1cc(CNC(=O)CCCCC=CC(C)C)ccc1O [(12), 8-Methyl-N-vanillyl-6-nonenamide]",The level of expressed mRNA in the presence of chemical substance/The level of expressed mRNA in the absence of chemical substance,"yeast gene YFL024C, cultured two hours with substance",0.8
same,The level of expressed mRNA in the presence of chemical substance/The level of expressed mRNA in the absence of chemical substance,"yeast gene YFL032W, cultured two hours with substance",0.7
same,The level of expressed mRNA in the presence of chemical substance/The level of expressed mRNA in the absence of chemical substance,yeast gene YGL001C,0.9
same,The level of expressed mRNA in the presence of chemical substance/The level of expressed mRNA in the absence of chemical substance,"yeast gene YGL037C, cultured two hours with substance",0.8
same,The level of expressed mRNA in the presence of chemical substance/The level of expressed mRNA in the absence of chemical substance,"yeast gene YGL047W, cultured two hours with substance",1.1
same,The level of expressed mRNA in the presence of chemical substance/The level of expressed mRNA in the absence of chemical substance,"yeast gene YGL053W, cultured two hours with substance",1.3
same,The level of expressed mRNA in the presence of chemical substance/The level of expressed mRNA in the absence of chemical substance,"yeast gene YGL062W, cultured for two hours with substance",1.6
same,The level of expressed mRNA in the presence of chemical substance/The level of expressed mRNA in the absence of chemical substance,yeast gene YGL104C,1.1
same,The level of expressed mRNA in the presence of chemical substance/The level of expressed mRNA in the absence of chemical substance,yeast gene YGL115W (stress protein genes),0.9
same,The level of expressed mRNA in the presence of chemical substance/The level of expressed mRNA in the absence of chemical substance,"yeast gene YGL117W, cultured two hours with substance",1.5
same,The level of expressed mRNA in the presence of chemical substance/The level of expressed mRNA in the absence of chemical substance,"yeast gene YGL121C, cultured two hours with substance",1.6
same,The level of expressed mRNA in the presence of chemical substance/The level of expressed mRNA in the absence of chemical substance,"yeast gene YGL136C, cultured two hours with substance",1.1
same,The level of expressed mRNA in the presence of chemical substance/The level of expressed mRNA in the absence of chemical substance,"yeast gene YGL199C, cultured two hours with substance",0.9
same,The level of expressed mRNA in the presence of chemical substance/The level of expressed mRNA in the absence of chemical substance,yeast gene YGL209W,1.3
same,The level of expressed mRNA in the presence of chemical substance/The level of expressed mRNA in the absence of chemical substance,"yeast gene YGR035C, cultured two hours with substance",3.3
same,The level of expressed mRNA in the presence of chemical substance/The level of expressed mRNA in the absence of chemical substance,"yeast gene YGR055W, metabolism protein genes",0.9
same,The level of expressed mRNA in the presence of chemical substance/The level of expressed mRNA in the absence of chemical substance,"yeast gene YGR101W, cultured two hours with substance",1.0
same,The level of expressed mRNA in the presence of chemical substance/The level of expressed mRNA in the absence of chemical substance,"yeast gene YGR110W, cultured two hours with substance",1.4
same,The level of expressed mRNA in the presence of chemical substance/The level of expressed mRNA in the absence of chemical substance,"yeast gene YGR130C, cultured two hours with substance",0.7
same,The level of expressed mRNA in the presence of chemical substance/The level of expressed mRNA in the absence of chemical substance,"yeast gene YGR142W, cultured two hours with substance",2.0
same,The level of expressed mRNA in the presence of chemical substance/The level of expressed mRNA in the absence of chemical substance,"yeast gene YGR146C, cultured two hours with substance",1.4
same,The level of expressed mRNA in the presence of chemical substance/The level of expressed mRNA in the absence of chemical substance,"yeast gene YGR154C, cultured two hours with substance",0.9
same,The level of expressed mRNA in the presence of chemical substance/The level of expressed mRNA in the absence of chemical substance,"yeast gene YGR221C, cultured two hours with substance",1.6
same,The level of expressed mRNA in the presence of chemical substance/The level of expressed mRNA in the absence of chemical substance,yeast gene YGR281W (transport facilitation protein gene),2.4
same,The level of expressed mRNA in the presence of chemical substance/The level of expressed mRNA in the absence of chemical substance,yeast gene YGR282C,1.3
same,The level of expressed mRNA in the presence of chemical substance/The level of expressed mRNA in the absence of chemical substance,"yeast gene YGR284C, cultured two hours with substance",2.1
same,The level of expressed mRNA in the presence of chemical substance/The level of expressed mRNA in the absence of chemical substance,"yeast gene YHL038C, mitochondria-located protein gene, cultured two hours with substance",1.6
same,The level of expressed mRNA in the presence of chemical substance/The level of expressed mRNA in the absence of chemical substance,yeast gene YHL047C (transport facilitation protein gene),2.6
same,The level of expressed mRNA in the presence of chemical substance/The level of expressed mRNA in the absence of chemical substance,"yeast gene YHR029C, cultured two hours with substance",1.5
same,The level of expressed mRNA in the presence of chemical substance/The level of expressed mRNA in the absence of chemical substance,"yeast gene YHR054C, cultured two hours with substance",3.6
same,The level of expressed mRNA in the presence of chemical substance/The level of expressed mRNA in the absence of chemical substance,"yeast gene YHR111W, metabolism protein genes",0.9
same,The level of expressed mRNA in the presence of chemical substance/The level of expressed mRNA in the absence of chemical substance,"yeast gene YHR138C, cultured two hours with substance",1.8
same,The level of expressed mRNA in the presence of chemical substance/The level of expressed mRNA in the absence of chemical substance,"yeast gene YHR179W, cultured for two hours with substance",2.2
same,The level of expressed mRNA in the presence of chemical substance/The level of expressed mRNA in the absence of chemical substance,"yeast gene YHR199C, cultured two hours with substance",1.1
same,The level of expressed mRNA in the presence of chemical substance/The level of expressed mRNA in the absence of chemical substance,"yeast gene YHR209W, cultured two hours with substance",1.0
same,The level of expressed mRNA in the presence of chemical substance/The level of expressed mRNA in the absence of chemical substance,"yeast gene YIL023C, cultured two hours with substance",0.9
same,The level of expressed mRNA in the presence of chemical substance/The level of expressed mRNA in the absence of chemical substance,"yeast gene YIL024C, cultured two hours with substance",0.7
same,The level of expressed mRNA in the presence of chemical substance/The level of expressed mRNA in the absence of chemical substance,"yeast gene YIL041W, cultured two hours with substance",1.0
same,The level of expressed mRNA in the presence of chemical substance/The level of expressed mRNA in the absence of chemical substance,"yeast gene YIL077C, cultured two hours with the substance",1.6
same,The level of expressed mRNA in the presence of chemical substance/The level of expressed mRNA in the absence of chemical substance,"yeast gene YIL087C, cultured two hours with substance",1.1
same,The level of expressed mRNA in the presence of chemical substance/The level of expressed mRNA in the absence of chemical substance,"yeast gene YIL117C, cultured two hours with substance",1.4
same,The level of expressed mRNA in the presence of chemical substance/The level of expressed mRNA in the absence of chemical substance,yeast gene YIL154C,1.1
same,The level of expressed mRNA in the presence of chemical substance/The level of expressed mRNA in the absence of chemical substance,yeast gene YIL167W,0.7
same,The level of expressed mRNA in the presence of chemical substance/The level of expressed mRNA in the absence of chemical substance,"yeast gene YJL020C, cultured two hours with substance",0.7
same,The level of expressed mRNA in the presence of chemical substance/The level of expressed mRNA in the absence of chemical substance,"yeast gene YJL052W, cultured for two hours with substance",2.4
same,The level of expressed mRNA in the presence of chemical substance/The level of expressed mRNA in the absence of chemical substance,"yeast gene YJL057C, cultured two hours with substance",1.0
same,The level of expressed mRNA in the presence of chemical substance/The level of expressed mRNA in the absence of chemical substance,"yeast gene YJL066C, cultured two hours with substance",1.0
same,The level of expressed mRNA in the presence of chemical substance/The level of expressed mRNA in the absence of chemical substance,"yeast gene YJL082W, cultured two hours with substance",1.3
same,The level of expressed mRNA in the presence of chemical substance/The level of expressed mRNA in the absence of chemical substance,"yeast gene YJL108C, cultured two hours with substance",0.4
same,The level of expressed mRNA in the presence of chemical substance/The level of expressed mRNA in the absence of chemical substance,"yeast gene YJL149W, cultured two hours with substance",1.1

# — patent US20100041089A1, “IMPROVED METHOD FOR DETECTING CHEMICAL […]” (priority 2006, published 2010)
